One assay concerns E. coli ATCC 25922. The assay can be described thus: MIC on reference sensitive E. coli. The class given is cell-based, Escherichia coli. The note with it: Escherichia coli, ATCC25922. The source says: (§1) We thus tested 1–8 and III initially on the reference sensitive E. coli ATCC 25922 and on the extended-spectrum of beta-lactamase-positive (ESBL) E. coli, as Gram-negative bacteria. Moreover, in order to evaluate the susceptibility of this series of compounds to the efflux pump AcrAB, we employed also the above-mentioned E. coli N43, which is the knockout of the AcrAB cell membrane pump.

Another assay deals with MSSA ATCC 29213. The assay can be described thus: MIC/MBC determination in LB broth, MSSA. The class given is cell-based, Staphylococcus aureus. To be noted: for MBC / MIC: Staphylococcus aureus; for MBC / MIC / MBC/MIC: MSSA ATCC 29213; for MBC: read-out: MBC; for MIC: read-out: MIC. The procedure:
(§2) Normal human lung fibroblasts (MRC-5) were grown in Dulbecco’s modified Eagle’s medium (DMEM) supplemented with 10% calf serum, 100 U/mL penicillin and […] streptomycin in an incubator at 5% CO2 atmosphere and 37 °C. The Gram-positive Staphylococcus aureus (methicillin-sensitive, MSSA ATCC 29213, and methicillin-resistant, MRSA ATCC 43300) and the Gram-negative Escherichia coli (ESBL, extended-spectrum beta-lactamase-positive) bacterial cells were grown in Luria-Bertani broth (LB) at 37 °C under constant shaking at 300 rpm.
(§3) The antibacterial activity was tested on both a methicillin-sensitive and a methicillin-resistant S. aureus strain, and an ESBL E. coli clinical isolate. All the compounds were dissolved at the final concentration of 20 mg/mL in dimethyl sulfoxide (DMSO) and serially diluted in LB. Fresh cell cultures were used at 10^5 cells/mL in a final volume of 2 mL. Each bacterial sample was grown with different compound concentrations that ranged from 100 to 0.1 μg/mL. […] To determine the MBC, the bacteria were then washed three times with LB, centrifuged at 900× g for 10 min at 4 °C, and the pellet resuspended in fresh LB. After overnight incubation at 37 °C, the absence of growth was confirmed by OD measurement. The presence of antibacterial activity, at any concentration tested, was established for values of absorbance < 0.1 OD600. All tests were performed in quadruplicate and for each series of experiments, both positive (no compounds) and negative (no bacteria) controls were included.

The subject of a further assay is MRSA ATCC 43300. The assay can be described thus: MIC/MBC determination in LB broth, MRSA. The note with it: for MBC / MIC: Staphylococcus aureus; for MBC: read-out: MBC; for MIC: read-out: MIC. Type of assay: cell-based, Staphylococcus aureus. The procedure: as §2, §3
The test system of the next assay is ESBL E. coli. Kind of assay: MIC in LB broth, ESBL E. coli clinical isolate. Type of assay: cell-based, Escherichia coli. The note with it: Escherichia coli, read-out: MIC. The procedure: as §1, §2, §3
A further assay has as its system E. coli N43. Kind of assay: Broth microdilution MIC, efflux-defective E. coli N43. The class given is cell-based, Escherichia coli. To be noted: Escherichia coli, N43. The procedure:
as §1
(§4) Antibacterial activities of compounds were determined by the broth microdilution method against MDRSA 11.7, MDRSA 12.1 and E. coli N43 following the European Committee on Antimicrobial Susceptibility Testing (EUCAST) recommendations and Clinical and Laboratory Standards Institute (CLSI) guidelines. Strains MDRSA ST-11.7 and ST-12.1 were obtained through the interlaboratory control organized by the EU Reference Laboratory—Antimicrobial Resistance. Only data on their resistance to antibiotics are known, but other data are not available.
(§5) Bacterial suspension of specific bacterial strain equivalent to 0.5 McFarland turbidity standard was diluted with cation-adjusted Mueller Hinton broth with TES (Thermo Fisher Scientific), to obtain a final inoculum of 10^5 CFU/mL. Compounds dissolved in DMSO and inoculum were mixed together and incubated for 20 h at 37 °C. After incubation, the minimal inhibitory concentration (MIC) values were determined by visual inspection as the lowest dilution of compounds showing no turbidity. Tetracycline was used as a positive control on every assay plate.
(In broth dilution the organism is exposed to a series of concentrations in liquid medium.)

In another assay the test system is MDRSA 12.1. Kind of assay: Broth microdilution MIC, MDRSA 12.1. To be noted: Staphylococcus aureus, read-out: MIC. Type of assay: cell-based, Staphylococcus aureus. The procedure:
(§6) Antimicrobial activity of 1–8 was evaluated on both Gram-positive (Table 3) and Gram-negative (Table 4) species. As a continuation of our previous studies, considering the Gram-positive S. aureus, we chose a methicillin-sensitive S. aureus (MSSA, ATCC 29213), a methicillin-resistant S. aureus (MRSA, ATCC 43300) and two clinical isolates of S. aureus showing multi-drug resistance (MDRSA).
as §4, §5

The next assay has as its system MDRSA 11.7. The assay can be described thus: Broth microdilution MIC, MDRSA 11.7. Type of assay: cell-based, Staphylococcus aureus. To be noted: Staphylococcus aureus, read-out: MIC. The procedure:
as §6, §4, §5

The subject of another assay is E. coli AcrAB–. The note with it: ref 10 (Z2, Z3), 11 (TXY436), 12 (I, II); cited from earlier work.
Assay [1] deals with Methicillin Sensitive S. aureus. The note with it: cited from earlier work; for MIC vs. MSSA: chromanes ref 22.

Values after ≈ are worked out from the molar mass of the structure shown. Some results are limits rather than exact numbers.

The source of these data is publication PMC7235863, “Benzamide Derivatives Targeting the Cell Division Protein FtsZ: Modifications of the Linker and the Benzodioxane Scaffold and Their Effects on Antimicrobial Activity” (Antibiotics, 2020).

A word on the MIC: it is the least concentration at which growth counts as inhibited. By MBC is commonly meant the smallest concentration meeting the test's criterion for killing.

As to `NC(=O)c1c(F)ccc(OCC2CS(=O)(=O)c3ccccc3O2)c1F` (centres unmarked) [Compound 2], the MIC with E. coli ATCC 25922, with MSSA ATCC 29213, in the assay with MRSA ATCC 43300 and in the assay on ESBL E. coli was more than 100 µg/mL in each case. In addition, the MBC in the assay on MSSA ATCC 29213 and in the assay with MRSA ATCC 43300 was more than 100 µg/mL in each case.
`NC(=O)c1c(F)ccc(OCC2COc3ccccc3S2(=O)=O)c1F` (centres unmarked) [Compound 4]: the MIC against E. coli ATCC 25922, in the assay with MSSA ATCC 29213, in the assay on MRSA ATCC 43300 and with ESBL E. coli was more than 100 µg/mL each time. Also, the MBC in the assay with MSSA ATCC 29213 and in the assay with MRSA ATCC 43300 was more than 100 µg/mL each time.
Take `NC(=O)c1c(F)ccc(OCCC2CSc3ccccc3O2)c1F` (centres unmarked) [Compound 6]: the minimum inhibitory concentration (MIC) was more than 128 µg/mL in the assay on E. coli N43; more than 100 µg/mL with E. coli ATCC 25922; 2.5 µg/mL (≈ 7.11 µM) with MSSA ATCC 29213; 4 µg/mL (≈ 11.4 µM) in the assay on MDRSA 12.1; 8 µg/mL (≈ 22.8 µM) in the assay with MDRSA 11.7; 2.5 µg/mL (≈ 7.11 µM) in the assay with MRSA ATCC 43300. In the assay with ESBL E. coli, the MIC was more than 100 µg/mL. Also, the MBC/MIC in the assay on MSSA ATCC 29213 and against MRSA ATCC 43300 was 2 throughout. Also, the MBC with MSSA ATCC 29213 and in the assay with MRSA ATCC 43300 was 5 µg/mL (≈ 14.2 µM) throughout.
As for `NC(=O)c1c(F)ccc(OCCCC2COc3ccccc3O2)c1F` (centres unmarked) [Compound 8], the MIC against E. coli N43 was more than 128 µg/mL; with E. coli ATCC 25922 it was more than 100 µg/mL; with MSSA ATCC 29213 it was 10 µg/mL (≈ 28.6 µM); in the assay on MDRSA 12.1, 16 µg/mL (≈ 45.8 µM); in the assay with MDRSA 11.7, 32 µg/mL (≈ 91.6 µM); with MRSA ATCC 43300, 10 µg/mL (≈ 28.6 µM). Besides, the MIC with ESBL E. coli was more than 100 µg/mL. In addition, the MBC/MIC against MSSA ATCC 29213 and against MRSA ATCC 43300 was 10 throughout. Moreover, the MBC with MSSA ATCC 29213 and in the assay on MRSA ATCC 43300 was 100 µg/mL (≈ 286 µM) each time.
Take `CCN(CC)CCNc1nc(/C=C/c2ccc(Cl)cc2)nc2cc3ccccc3cc12` [Compound Z3]: the MIC is 4 µg/mL (≈ 9.28 µM) in the assay on E. coli AcrAB– and 2.1 µg/mL (≈ 4.87 µM) in [1] (Methicillin Sensitive S. aureus, ref 10 (Z2, Z3), 11 (TXY436), 12 (I, II)).
As to `NC(=O)c1c(F)ccc(OCC2COc3ccccc3O2)c1F` (centres unmarked) [III, reference compound], the MIC is more than 128 µg/mL in the assay on E. coli N43; more than 100 µg/mL with E. coli ATCC 25922; 5 µg/mL (≈ 15.6 µM) in the assay on MSSA ATCC 29213; 8 µg/mL (≈ 24.9 µM) with MDRSA 12.1; 16 µg/mL (≈ 49.8 µM) in the assay on MDRSA 11.7; 5 µg/mL (≈ 15.6 µM) in the assay with MRSA ATCC 43300. Besides, the MIC in the assay on ESBL E. coli was more than 100 µg/mL. Further, the MBC/MIC in the assay with MSSA ATCC 29213 and against MRSA ATCC 43300 was 16 in each case. Also, in the assay with MSSA ATCC 29213 (S. aureus, as summarised in the text from Table 3), the MBC/MIC ratios came out at 16. For the same compound, the MBC with MSSA ATCC 29213 and with MRSA ATCC 43300 was 80 µg/mL (≈ 249 µM) throughout.
As for `NC(=O)c1c(F)ccc(OCC2CCc3ccccc3O2)c1F` (centres unmarked) [IV], in [1], the “MIC vs. MSSA” value is reported as 5 µg/mL (≈ 15.7 µM).
Turning to `NC(=O)c1c(F)ccc(OCC2COc3ccccc3C2)c1F` (centres unmarked) [V], the “MIC vs. MSSA” value in [1] was 100 µg/mL (≈ 313 µM).
